Reference: paper PMC3871529, “At a Supra-Physiological Concentration, Human Sexual Hormones Act as Quorum-Sensing Inhibitors” (PLoS ONE, 2013)
Where two headings read alike, the source gives them in different places.

Legend:
[1] = test system: QS-regulated Ti-plasmid transfer in A. tumefaciens; experiment: QS-regulated Ti-plasmid transfer (conjugation) assay; format: cell-based, Agrobacterium tumefaciens; settings: QSI at 0.1 mg/ml, OC8-HSL 500 pM, 72 h at 24°C
Method: Figure 4 In vitro Ti plasmid transfer frequency in Agrobacterium. The Ti plasmid transfer frequencies were measured in the presence of QSI (A) and the four 1248-diastereoisomeres (B) at 0.1 mg/ml. Histograms represent the cell density of transconjugants (CFU/ml), while black diamonds and squares, those of the donor and recipient strains, respectively. Measurements were performed in quadruplicate and the experiment was repeated twice. The cell densities of transconjugants in the presence of QSI were compared to that of the control in the presence of DMSO with a Mann and Whitney test (α = 0.05). Statistically different values are noted by asterisks.
In A. tumefaciens, the transfer of the Ti-plasmid from a donor cell to a recipient one is controlled by QS. QSI were evaluated for their capacity to reduce plasmid transfer frequency in Agrobacterium. In the plasmid transfer assay, two modified Agrobacterium strains were used: a Ti-plasmid donor, which requires exogenous AHL to transfer a kanamycin-resistant (Km^r) Ti-plasmid, and a rifampicin-resistant (Rif^r) recipient strain, which is free of Ti-plasmid. Overnight cultures of the donor and recipient strains were mixed with 500 pM of oxo-octanoylhomoserine lactone (OC8-HSL) and 0.1 mg/ml of QSI in LBm medium. Each combination was repeated 4 times in microwell plates.

[2] = test system: QS-regulated genes lasI, lasR, lasB, rhlI, rhlR, rhlA in P. aeruginosa PAO1; experiment: QS-regulated gene expression, lacZ transcriptional fusions in PAO1; format: cell-based, Pseudomonas aeruginosa; settings: for expression of six QS-regulated genes (lasI, lasR, lasB, rhlI, rhlR, rhlA): QSI at 0.5 mg/ml, 18 hours at 37°C, β-galactosidase; for inhibition of expression of the regulators lasR and rhlR (rank) / impact on rhlI expression relative to naringenin, estradiol and estrone: QSIs at 0.5 mg/ml; for impact on rhlI expression relative to naringenin, estradiol and estrone: naringenin at 1 mg/ml
Method: Figure 6 QSIs modulated QS-regulated genes in P. aeruginosa. The β-galactosidase (b-Gal) activity in Miller unit (MU) of the transcriptional fusions lasI-lacZ (A), lasR-lacZ (B), lasB-lacZ (C), rhlI-lacZ (D), rhlR-lacZ (E), rhlA-lacZ (F), and aecA-lacZ(G) were measured in the presence of estradiol, estrone, estriol, hordenine at 0.5 mg/ml, and naringenin at 1 mg/ml as a positive control and DMSO as a negative control. The statistical significance of each test (n = 5 and three biological replicates) was evaluated by Student's t test (i.e. each test was compared with the DMSO condition). Asterisks indicate statistically different data (p value of ≤0.01).
QS gene transcription in P. aeruginosa PAO1 was monitored using PAO1 strains carrying various gene promoters fused to a lacZ reporter gene, as described in Vandeputte et al., 2010 and Table 1. PAO1 reporter strains were prepared according to Vandeputte et al.. Briefly, 18-hours-old liquid cultures (50 µl) were diluted in order to obtain a starting OD600 nm comprised between 0.02 and 0.03 in fresh LB medium supplemented with 50 mM MOPS pH 7.0 (1 ml), carbenicillin (300 µg/ml) and 10 µl of the QSIs to be tested (OD were measured using a SpectraMax M2 device from Molecular Devices). Test and control QSIs were diluted in 100% DMSO (resulting after addition to the growth medium in a 1% final concentration of DMSO). Cultures were incubated for 18 hours at 37°C with agitation. After incubation, cell densities were assessed spectrophotometrically (OD600 nm) and β-galactosidase assays were performed using the substrate o-nitrophenyl-β-D-galactopyranoside as described previously, [29]. Promoterless-lacZ fusions were used as controls. AHLs were quantified as described in Vandeputte et al.. All tests were performed in quintuplicates and three biological repetitions. The statistical significance of each test was evaluated by conducting Student's t tests and two-way ANOVA combined with the Tukey post-analysis test using the GraphPad Prism software and p values≤0.01 were considered significant.

[3] = test system: Agrobacterium biosensor cells; experiment: Minimal bactericidal concentration (MBC); format: cell-based, Agrobacterium tumefaciens; settings: 99.9% reduction of 10^5 CFU/ml after 36 h at 30°C
Method: (§1) Aside from the effect of QSI on QS regulation, the toxicity of these compounds was tested on bacterial cells by measuring two parameters: the minimal inhibitory concentration (MIC) and minimal bactericidal concentration (MBC). MIC, which is the lowest concentration of QSI (µg/ml) inhibiting any visible culture after 36 h of incubation at 30°C, was estimated by culturing 10^5 CFU/ml of the Agrobacterium biosensor cells in the presence of different concentrations of the QSI. MBC, which is the lowest concentration of QSI (µg/ml) that results in a 99.9% reduction of the initial bacterial population (10^5 CFU/ml) after 36 h of incubation at 30°C in the presence of different concentrations of QSI, was estimated by plating 100 µL of the Agrobacterium cultures on agar LBm plates. After an incubation of 48 h at 30°C, CFU were counted and the MBC values were calculated.

[4] = test system: Agrobacterium biosensor cells; experiment: Minimal inhibitory concentration (MIC); format: cell-based, Agrobacterium tumefaciens; settings: 10^5 CFU/ml, 36 h at 30°C
Method: as §1

Compound | effect on Ti plasmid transfer frequency (words) [1] | effect on Ti plasmid transfer frequency (words) ([1]; listed as estrone) | expression of six QS-regulated genes (lasI, lasR, lasB, rhlI, rhlR, rhlA) [2] | MBC [3] | MIC [4] | inhibition of expression of the regulators lasR and rhlR (rank) [2] | impact on rhlI expression relative to naringenin, estradiol and estrone [2] | MBC ([3]; Agrobacterium, read-out: MBC) | MIC ([4]; Agrobacterium, read-out: MIC) | effect on Ti plasmid transfer frequency (words) ([1]; listed as hordenine)
3-Hydroxy-13-methyl-6,7,8,9,11,12,13,14,15,17-decahydro-cyclopenta[a] phenanthren-16-one [Compound 729, reference compound] | significantly reduce the plasmid transfer frequency by one order of magnitude | decreased the frequency | decreased | >100 µg/mL | >100 µg/mL | – | – | – | – | –
C[C@]12CC[C@@H]3c4ccc(O)cc4CC[C@H]3[C@@H]1C[C@@H](O)[C@@H]2O [Estriol, estriol] | significantly reduce the plasmid transfer frequency by one order of magnitude | – | decreased | – | – | the least | lower impact | > 100 µg/mL | > 100 µg/mL | –
CN(C)CCc1ccc(O)cc1 [Compound 3499, hordenine] | significantly reduce the plasmid transfer frequency by one order of magnitude | – | decreased | – | – | the most | lower impact | > 100 µg/mL | > 100 µg/mL | decreased the frequency
